From ChEMBL document CHEMBL6103550, “Pyrazolo-1-carbothioamides as EGR-1-DNA binding disruptors” (Bioorg Med Chem Lett, 2025)

How the values were obtained:
[1] = biological target: Early growth response protein 1 (Homo sapiens) (UniProt P18146); test: Disruption of EGR-1-DNA binding in human HaCaT cell nuclear extract at 50 uM in the presence of biotin-EBS oligonucleotide probe (5'-CAAAAAGGAGGAAGGTGAGGGAA-biotin-3') and poly(dI-dC) by EMSA analysis relative to control; assay type: subcellular
[2] = biological target: Early growth response protein 1 (Homo sapiens) (UniProt P18146); test: Disruption of EGR-1-DNA binding in TNF-alpha-stimulated human HaCaT cells assessed as decrease in TSLP mRNA level in presence of TNF-alpha by RT-PCR analysis; assay type: cell-based; conditions: dose 10-20 µM
[3] = biological target: Early growth response protein 1 (Homo sapiens) (UniProt P18146); test: Disruption of EGR-1-DNA binding in TNF-alpha-stimulated human HaCaT cell nuclear extract assessed as reduction in DNA-protein complex formation pretreated for 1 hr followed by incubation of nuclear extract with biotin-EBS oligonucleotide probe (5'-CAAAAAGGAGGAAGGTGAGGGAA-biotin-3') by EMSA analysis; assay type: subcellular; conditions: Nucleus, dose 10-20 µM
[4] = biological target: Early growth response protein 1 (Homo sapiens) (UniProt P18146); test: Disruption of EGR-1-DNA binding in TNF-alpha-stimulated human HaCaT cells assessed as decrease in IL-31 mRNA level in presence of TNF-alpha by RT-PCR analysis; assay type: cell-based; conditions: dose 10-20 µM
[5] = biological target: Early growth response protein 1 (Homo sapiens) (UniProt P18146); test: Disruption of EGR-1-DNA binding in TNF-alpha-stimulated human HaCaT cells assessed as decrease in CCL-2 mRNA level in presence of TNF-alpha by RT-PCR analysis; assay type: cell-based; conditions: dose 10-20 µM
[6] = biological target: Early growth response protein 1 (Homo sapiens) (UniProt P18146); test: Disruption of EGR-1-DNA binding in TNF-alpha-stimulated human HaCaT cells assessed as decrease in IL-6 mRNA level in presence of TNF-alpha by RT-PCR analysis; assay type: cell-based; conditions: dose 10-20 µM

Sequence of Early growth response protein 1 (Homo sapiens) (P18146 whole entry, looked up): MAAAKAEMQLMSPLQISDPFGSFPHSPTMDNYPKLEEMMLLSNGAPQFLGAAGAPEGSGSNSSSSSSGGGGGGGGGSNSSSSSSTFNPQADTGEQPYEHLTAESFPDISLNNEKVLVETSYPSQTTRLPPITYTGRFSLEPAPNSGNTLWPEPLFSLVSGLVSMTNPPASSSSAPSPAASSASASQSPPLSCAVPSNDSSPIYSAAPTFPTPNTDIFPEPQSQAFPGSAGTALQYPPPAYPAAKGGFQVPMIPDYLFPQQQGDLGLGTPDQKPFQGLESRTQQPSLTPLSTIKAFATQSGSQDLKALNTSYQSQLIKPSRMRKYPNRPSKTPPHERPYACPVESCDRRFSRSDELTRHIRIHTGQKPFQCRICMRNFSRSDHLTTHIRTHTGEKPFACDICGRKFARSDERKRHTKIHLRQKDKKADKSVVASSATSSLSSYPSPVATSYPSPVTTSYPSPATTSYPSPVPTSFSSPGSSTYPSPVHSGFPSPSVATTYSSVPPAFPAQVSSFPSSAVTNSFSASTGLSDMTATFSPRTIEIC

Structure (SMILES) | Activity [1] [%] | also measured
COc1ccc(C2CC(c3ccc4ccccc4c3O)=NN2C(=S)Nc2ccc(OC)cc2OC)cc1 (stereo not given) | 64.2 | 
COc1cc(O)c(C2=NN(C(=S)Nc3cc(OC)c(OC)c(OC)c3)C(c3cccc4ccccc34)C2)cc1OC (stereo not given) | 42.4 | 
COc1ccccc1NC(=S)N1N=C(c2ccc3ccccc3c2O)CC1c1cc(OC)c(OC)cc1OC (stereo not given) | 68.8 | 
COc1ccccc1NC(=S)N1N=C(c2ccc3ccccc3c2O)CC1c1ccc(OC)c(OC)c1OC (stereo not given) | 46.5 | 
COc1cccc(NC(=S)N2N=C(c3ccc(OC)cc3O)CC2c2cccc3ccccc23)c1 (stereo not given) | 32 | 
COc1ccc(C2CC(c3ccc4ccccc4c3O)=NN2C(=S)Nc2ccccc2OC)c(OC)c1 (stereo not given) | 46 | 
COc1cccc(O)c1C1=NN(C(=S)Nc2ccccc2)C(c2ccc(OC)c3ccccc23)C1 (stereo not given) | 64 | 
COc1ccccc1NC(=S)N1N=C(c2ccccc2O)CC1c1ccc(OC)c2ccccc12 (stereo not given) | 29.1 | 
COc1cc(OC)cc(C2CC(c3ccc4ccccc4c3O)=NN2C(=S)Nc2ccccc2OC)c1 (stereo not given) | 40.8 | 
COc1ccc(C2=NN(C(=S)Nc3ccccc3OC)C(c3ccc(OC)c4ccccc34)C2)c(O)c1 (stereo not given) | 57.3 | 
COc1ccccc1NC(=S)N1N=C(c2c(O)cccc2OC)CC1c1ccc(OC)c2ccccc12 (stereo not given) | 67.3 | 
COc1ccc(NC(=S)N2N=C(c3ccc4ccccc4c3O)CC2c2c(OC)cc(OC)cc2OC)cc1 (stereo not given) | 64.2 | 
COc1cc(O)c(C2=NN(C(=S)Nc3ccccc3OC)C(c3ccc(OC)c4ccccc34)C2)c(OC)c1 (stereo not given) | 70.7 | 
COc1cccc(NC(=S)N2N=C(c3ccc4ccccc4c3O)CC2c2ccc(OC)c(OC)c2OC)c1 (stereo not given) | 38 | 
COc1cc(NC(=S)N2N=C(c3c(O)cccc3OC)CC2c2cccc3ccccc23)cc(OC)c1OC (stereo not given) | 51.6 | 
COc1cccc(NC(=S)N2N=C(c3c(O)cc(OC)cc3OC)CC2c2ccc(OC)c3ccccc23)c1 (stereo not given) | 56.7 | 
COc1ccc(C2=NN(C(=S)Nc3cc(OC)c(OC)c(OC)c3)C(c3ccc(OC)c4ccccc34)C2)c(O)c1 (stereo not given) | 73.3 | 
COc1cc(O)c(C2=NN(C(=S)Nc3ccccc3)C(c3cccc4ccccc34)C2)cc1OC (stereo not given) | 53.6 | 
COc1ccc(/C=C/c2cc(OC)cc(OC)c2-c2oc3ccc([N+](=O)[O-])cc3c(=O)c2O)cc1 | 36.5 | 
COc1cccc(NC(=S)N2N=C(c3ccc4ccccc4c3O)CC2c2c(OC)cc(OC)cc2OC)c1 (stereo not given) | 64.8 | 

Structure (SMILES) | Activity [1] [%] | also measured
COc1ccc(NC(=S)N2N=C(c3cc(OC)c(OC)cc3O)CC2c2cccc3ccccc23)cc1 (stereo not given) | 46.9 | 
COc1ccccc1NC(=S)N1N=C(c2ccc3ccccc3c2O)CC1c1ccccc1OC (stereo not given) | 33.2 | 
COc1ccc(NC(=S)N2N=C(c3ccc4ccccc4c3O)CC2c2ccc(OC)cc2OC)c(OC)c1 (stereo not given) | 60.2 | 
COc1cccc(NC(=S)N2N=C(c3c(O)cc(OC)cc3OC)CC2c2cccc3ccccc23)c1 (stereo not given) | 53.3 | 
COc1cccc(NC(=S)N2N=C(c3cc(OC)c(OC)cc3O)CC2c2cccc3ccccc23)c1 (stereo not given) | 36.4 | 
COc1ccc(NC(=S)N2N=C(c3c(O)cccc3OC)CC2c2ccc(OC)c3ccccc23)cc1 (stereo not given) | 66.7 | 
COc1ccc(NC(=S)N2N=C(c3ccc4ccccc4c3O)CC2c2c(OC)cc(OC)cc2OC)c(OC)c1 (racemic) | 82.2 | Activity [2]: Dose-dependent-effect; Activity [3]: Dose-dependent-effect; Activity [4]: Dose-dependent-effect; Activity [5]: Dose-dependent-effect; Activity [6]: Dose-dependent-effect
COc1ccc(NC(=S)N2N=C(c3ccc4ccccc4c3O)CC2c2cc(OC)c(OC)cc2OC)cc1 (stereo not given) | 69 | 
COc1ccc(C2CC(c3ccc4ccccc4c3O)=NN2C(=S)Nc2cc(OC)c(OC)c(OO)c2)cc1 (stereo not given) | 70.5 | 
COc1ccccc1NC(=S)N1N=C(c2c(O)ccc3ccccc23)CC1c1ccccc1OC (stereo not given) | 22.9 | 
COc1ccc(C2CC(c3ccccc3O)=NN2C(=S)Nc2ccccc2)c2ccccc12 (stereo not given) | 22.7 | 
COc1cccc(NC(=S)N2N=C(c3ccc4ccccc4c3O)CC2c2ccc(OC)cc2OC)c1 (stereo not given) | 48 | 
COc1cccc(NC(=S)N2N=C(c3ccc4ccccc4c3O)CC2c2cccc(OC)c2)c1 (stereo not given) | 16.5 | 
COc1ccc(NC(=S)N2N=C(c3c(O)ccc4ccccc34)CC2c2ccccc2OC)cc1 (stereo not given) | 31.8 | 
COc1ccc(NC(=S)N2N=C(c3ccc4ccccc4c3O)CC2c2ccccc2OC)cc1 (stereo not given) | 31.2 | 
COc1ccc(NC(=S)N2N=C(c3ccc4ccccc4c3O)CC2c2cc(OC)c(OC)cc2OC)c(OC)c1 (stereo not given) | 56.5 | 
COc1ccccc1NC(=S)N1N=C(c2c(O)cccc2OC)CC1c1cccc2ccccc12 (stereo not given) | 40.9 | 
COc1cccc(C2CC(c3ccc4ccccc4c3O)=NN2C(=S)Nc2cc(OC)c(OC)c(OC)c2)c1 (stereo not given) | 30.8 | 
COc1ccc(NC(=S)N2N=C(c3ccc4ccccc4c3O)CC2c2ccc(OC)cc2OC)cc1 (stereo not given) | 44.5 | 

Continued, in another order:

Activity [1] [%] | Structure (SMILES) | also measured
71.3 | COc1cc(O)c(C2=NN(C(=S)Nc3ccccc3OC)C(c3cccc4ccccc34)C2)c(OC)c1 (stereo not given) | 
81.8 | COc1cc(OC)c(C2CC(c3ccc4ccccc4c3O)=NN2C(=S)Nc2ccccc2)cc1OC (stereo not given) | 
52.8 | COc1ccc(C2CC(c3ccc4ccccc4c3O)=NN2C(=S)Nc2ccccc2)cc1 (stereo not given) | 
44.8 | COc1cccc(NC(=S)N2N=C(c3ccc4ccccc4c3O)CC2c2ccccc2OC)c1 (stereo not given) | 
54 | COc1ccc(NC(=S)N2N=C(c3c(O)cccc3OC)CC2c2cccc3ccccc23)cc1 (stereo not given) | 
67.5 | COc1cc(OC)cc(C2CC(c3ccc4ccccc4c3O)=NN2C(=S)Nc2cc(OC)c(OC)c(OC)c2)c1 (stereo not given) | 
28 | COc1ccc(NC(=S)N2N=C(c3cc(OC)ccc3O)CC2c2ccc(OC)c3ccccc23)cc1 (stereo not given) | 
53.3 | COc1ccccc1NC(=S)N1N=C(c2cc(OC)c(OC)cc2O)CC1c1cccc2ccccc12 (stereo not given) | 
74.4 | COc1ccc(NC(=S)N2N=C(c3ccc(OC)cc3O)CC2c2ccc(OC)c3ccccc23)cc1 (stereo not given) | 
38.2 | COc1cc(O)c(C2=NN(C(=S)Nc3cc(OC)c(OC)c(OC)c3)C(c3cccc4ccccc34)C2)c(OC)c1 (stereo not given) | 
42.8 | COc1cccc(NC(=S)N2N=C(c3ccc4ccccc4c3O)CC2c2cc(OC)cc(OC)c2)c1 (stereo not given) | 
17.1 | COc1cccc(NC(=S)N2N=C(c3ccccc3O)CC2c2ccc(OC)c3ccccc23)c1 (stereo not given) | 
36.4 | COc1cccc(NC(=S)N2N=C(c3c(O)cccc3OC)CC2c2cccc3ccccc23)c1 (stereo not given) | 
67.8 | COc1ccc(NC(=S)N2N=C(c3ccc4ccccc4c3O)CC2c2cccc(OC)c2OC)c(OC)c1 (stereo not given) | 
71.8 | COc1cc(NC(=S)N2N=C(c3c(O)cccc3OC)CC2c2ccc(OC)c3ccccc23)cc(OC)c1OC (stereo not given) | 
49.5 | COc1ccc(NC(=S)N2N=C(c3ccc4ccccc4c3O)CC2c2ccc(OC)c(OC)c2OC)cc1 (stereo not given) | 

Activity [1] [%] | Structure (SMILES) | also measured
21.8 | COc1ccc(O)c(C2=NN(C(=S)Nc3ccccc3OC)C(c3ccc(OC)c4ccccc34)C2)c1 (stereo not given) | 
27 | COc1cccc(C2CC(c3ccc4ccccc4c3O)=NN2C(=S)Nc2ccc(OC)cc2OC)c1 (stereo not given) | 
73.3 | COc1cc(O)c(C2=NN(C(=S)Nc3ccccc3)C(c3ccc(OC)c4ccccc34)C2)c(OC)c1 (stereo not given) | 
62.7 | COc1cccc(NC(=S)N2N=C(c3c(O)cccc3OC)CC2c2ccc(OC)c3ccccc23)c1 (stereo not given) | 
57.3 | COc1ccc(NC(=S)N2N=C(c3cc(OC)c(OC)cc3O)CC2c2ccc(OC)c3ccccc23)cc1 (stereo not given) | 
59.1 | COc1cc(O)c(C2=NN(C(=S)Nc3cc(OC)c(OC)c(OC)c3)C(c3ccc(OC)c4ccccc34)C2)cc1OC (stereo not given) | 
35.6 | COc1cc(NC(=S)N2N=C(c3ccc4ccccc4c3O)CC2c2cccc(OC)c2OC)cc(OC)c1OC (stereo not given) | 
44 | COc1ccc(C2CC(c3ccc4ccccc4c3O)=NN2C(=S)Nc2ccccc2)c(OC)c1OC (stereo not given) | 
59 | COc1cc(OC)cc(C2CC(c3ccc4ccccc4c3O)=NN2C(=S)Nc2ccccc2)c1 (stereo not given) | 
27 | COc1ccc(NC(=S)N2N=C(c3ccc4ccccc4c3O)CC2c2cccc(OC)c2OC)cc1 (stereo not given) | 
35.1 | COc1ccc(NC(=S)N2N=C(c3ccc(OC)cc3O)CC2c2cccc3ccccc23)cc1 (stereo not given) | 
56.4 | COc1cccc(NC(=S)N2N=C(c3ccc(OC)cc3O)CC2c2ccc(OC)c3ccccc23)c1 (stereo not given) | 
35.1 | COc1ccc(C2=NN(C(=S)Nc3ccccc3)C(c3cccc4ccccc34)C2)c(O)c1 (stereo not given) | 
55.5 | COc1cccc(NC(=S)N2N=C(c3ccc4ccccc4c3O)CC2c2cc(OC)c(OC)cc2OC)c1 (stereo not given) | 
46.8 | COc1ccc(NC(=S)N2N=C(c3ccc4ccccc4c3O)CC2c2ccc(OC)c(OC)c2OC)c(OC)c1 (stereo not given) | 
